# Patent US6916812B2, “Alpha-aminoamide derivatives as melanocortin agonists” (Bristol-Myers Squibb Company, priority 2001, dated 2005)
# Read-outs that look alike come from different tables or passages of the source.
# How the values were obtained:
# cloned human MC4R = biological target: T1, cloned human MC4R (Homo sapiens, UniProt P32245); assay: Membrane binding assay: competitive inhibition of [125I]NDP-α-MSH binding; details: for inhibition at 10 µM: read-out: Displacement Rate (%) (at 10 μM); for IC50: read-out: MC4R IC50
# T1 construct: made in house; host or cells: Hi5 insect cells (baculovirus infection); membrane preparation
# Rodents = details: injected intracerebroventricularly (ICV); NPY, ob/ob, agouti, fasted feeding models; cited from earlier work
# [1] = system: male volunteers / patients with psychogenic erectile dysfunction; details: cited from earlier work
# [2] = at 10 μM, [125I]NDP-α-MSH displacement
# [3] = intramuscular, 0.005-0.03 mg/kg, three normal male volunteers
# [4] = subcutaneous, 0.025 mg/kg and 0.1 mg/kg, 10 patients with psychogenic erectile dysfunction
# T1 sequence (P32245 whole entry): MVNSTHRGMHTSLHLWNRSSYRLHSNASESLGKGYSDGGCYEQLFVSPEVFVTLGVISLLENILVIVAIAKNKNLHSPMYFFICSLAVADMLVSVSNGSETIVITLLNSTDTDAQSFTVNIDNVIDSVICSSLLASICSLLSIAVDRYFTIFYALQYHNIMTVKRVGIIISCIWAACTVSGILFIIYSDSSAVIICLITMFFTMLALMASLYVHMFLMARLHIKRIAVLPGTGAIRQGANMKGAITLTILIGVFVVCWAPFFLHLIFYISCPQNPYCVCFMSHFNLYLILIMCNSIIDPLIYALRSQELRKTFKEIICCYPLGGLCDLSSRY
inhibition at 10 µM (cloned human MC4R; [2]) [%],IC50 (cloned human MC4R) [nM],Compound,other results
91 to 100,1500 to 3000,COc1ccc(-c2ccc(C[C@H](N)C(=O)N3CCN(Cc4cccc(Cl)c4Cl)CC3)cc2)cc1 [Example 317],
91 to 100,1500 to 3000,Cc1cccc(-c2ccc(C[C@H](N)C(=O)N3CCN(Cc4cccc(Cl)c4Cl)CC3)cc2)c1 [Example 318],
,1500 to 3000,N[C@@H](Cc1ccc(-c2ccc3c(c2)OCO3)cc1)C(=O)N1CCN(Cc2cccc(Cl)c2Cl)CC1 [Example 319],Displacement Rate (%) (at 10 μM) (cloned human MC4R; [2]): ++ (++ = 71-90)
,1500 to 3000,COc1ccc(OC)c(-c2ccc(C[C@H](N)C(=O)N3CCN(Cc4cccc(Cl)c4Cl)CC3)cc2)c1 [Example 320],Displacement Rate (%) (at 10 μM) (cloned human MC4R; [2]): +++ (+++ = 91-100)
91 to 100,1500 to 3000,N[C@@H](Cc1ccc(-c2ccccc2Cl)cc1)C(=O)N1CCN(Cc2cccc(Cl)c2Cl)CC1 [Example 321],
,1500 to 3000,COc1ccc(-c2ccc(C[C@H](N)C(=O)N3CCN(Cc4cccc(Cl)c4Cl)CC3)cc2)c(OC)c1 [Example 322],Displacement Rate (%) (at 10 μM) (cloned human MC4R; [2]): ++ (++ = 71-90)
71 to 90,1500 to 3000,CN(C)c1ccc(-c2ccc(C[C@H](N)C(=O)N3CCN(Cc4cccc(Cl)c4Cl)CC3)cc2)cc1 [Example 323],
91 to 100,1500 to 3000,N[C@@H](Cc1ccc(-c2c(Cl)cccc2Cl)cc1)C(=O)N1CCN(Cc2cccc(Cl)c2Cl)CC1 [Example 324],
71 to 90,1500 to 3000,COc1cccc(-c2ccc(C[C@H](N)C(=O)N3CCN(Cc4cccc(Cl)c4Cl)CC3)cc2)c1 [Example 325],
71 to 90,1500 to 3000,COc1ccccc1-c1ccc(C[C@H](N)C(=O)N2CCN(Cc3cccc(Cl)c3Cl)CC2)cc1 [Example 326],
,1500 to 3000,COc1ccc(Cl)cc1-c1ccc(C[C@H](N)C(=O)N2CCN(Cc3cccc(Cl)c3Cl)CC2)cc1 [Example 327],Displacement Rate (%) (at 10 μM) (cloned human MC4R; [2]): +++ (+++ = 91-100)
71 to 90,1500 to 3000,CC(=O)c1cccc(-c2ccc(C[C@H](N)C(=O)N3CCN(Cc4cccc(Cl)c4Cl)CC3)cc2)c1 [Example 328],
71 to 90,> 3000,N[C@@H](Cc1ccc(-c2ccc(C(=O)O)cc2)cc1)C(=O)N1CCN(Cc2cccc(Cl)c2Cl)CC1 [Example 329],
71 to 90,> 3000,N[C@@H](Cc1ccc(-c2cccc([N+](=O)[O-])c2)cc1)C(=O)N1CCN(Cc2cccc(Cl)c2Cl)CC1 [Example 330],
,> 3000,COc1ccc(-c2ccc(C[C@H](N)C(=O)N3CCN(Cc4cccc(Cl)c4Cl)CC3)cc2)cc1OC [Example 331],Displacement Rate (%) (at 10 μM) (cloned human MC4R; [2]): + (+ = 35-70)
35 to 70,> 3000,CC(C)c1ccc(-c2ccc(C[C@H](N)C(=O)N3CCN(Cc4cccc(Cl)c4Cl)CC3)cc2)cc1 [Example 332],
71 to 90,> 3000,Nc1cccc(-c2ccc(C[C@H](N)C(=O)N3CCN(Cc4cccc(Cl)c4Cl)CC3)cc2)c1 [Example 333],

inhibition at 10 µM (cloned human MC4R; [2]) [%],IC50 (cloned human MC4R) [nM],Compound,other results
35 to 70,> 3000,COc1cc(-c2ccc(C[C@H](N)C(=O)N3CCN(Cc4cccc(Cl)c4Cl)CC3)cc2)cc(OC)c1OC [Example 334],
,< 1500,N[C@@H](Cc1ccc(-c2cccc3c2Sc2ccccc2O3)cc1)C(=O)N1CCN(Cc2cccc(Cl)c2Cl)CC1 [Example 335],inhibition at 10 µM (cloned human MC4R): 91 to 100%
,< 1500,N[C@@H](Cc1ccc(-c2cccc3c2oc2ccccc23)cc1)C(=O)N1CCN(Cc2cccc(Cl)c2Cl)CC1 [Example 336],inhibition at 10 µM (cloned human MC4R): 91 to 100%
,< 1500,N[C@@H](Cc1ccc(-c2cccc3c2sc2ccccc23)cc1)C(=O)N1CCN(Cc2cccc(Cl)c2Cl)CC1 [Example 337],inhibition at 10 µM (cloned human MC4R): 91 to 100%
,< 1500,N[C@@H](Cc1ccc(-c2cc3ccccc3s2)cc1)C(=O)N1CCN(Cc2cccc(Cl)c2Cl)CC1 [Example 338],inhibition at 10 µM (cloned human MC4R): 91 to 100%
,< 1500,N[C@@H](Cc1ccc(-c2ccsc2)cc1)C(=O)N1CCN(Cc2cccc(Cl)c2Cl)CC1 [Example 339],inhibition at 10 µM (cloned human MC4R): 91 to 100%
,1500 to 3000,N[C@@H](Cc1ccc(-c2cccc3cccnc23)cc1)C(=O)N1CCN(Cc2cccc(Cl)c2Cl)CC1 [Example 340],inhibition at 10 µM (cloned human MC4R): 71 to 90%
,1500 to 3000,N[C@@H](Cc1ccc(-c2cnc3ccccc3c2)cc1)C(=O)N1CCN(Cc2cccc(Cl)c2Cl)CC1 [Example 341],inhibition at 10 µM (cloned human MC4R): 71 to 90%
,1500 to 3000,CC(=O)c1ccc(-c2ccc(C[C@H](N)C(=O)N3CCN(Cc4cccc(Cl)c4Cl)CC3)cc2)s1 [Example 342],inhibition at 10 µM (cloned human MC4R): 71 to 90%
,> 3000,COc1ccc(-c2ccc(C[C@H](N)C(=O)N3CCN(Cc4cccc(Cl)c4Cl)CC3)cc2)cn1 [Example 343],inhibition at 10 µM (cloned human MC4R): 35 to 70%
,> 3000,N[C@@H](Cc1ccc(Oc2ccccc2)cc1)C(=O)N1CCN(Cc2cccc(Cl)c2Cl)CC1 [Example 344],
,< 1500,Cc1ccc(Oc2ccc(C[C@H](N)C(=O)N3CCN(Cc4cccc(Cl)c4Cl)CC3)cc2)cc1 [Example 345],
,1500 to 3000,N[C@@H](Cc1ccc(Oc2ccc(Cl)c(Cl)c2)cc1)C(=O)N1CCN(Cc2cccc(Cl)c2Cl)CC1 [Example 346],
,1500 to 3000,Cc1cccc(Oc2ccc(C[C@H](N)C(=O)N3CCN(Cc4cccc(Cl)c4Cl)CC3)cc2)c1 [Example 347],
,1500 to 3000,Cc1ccccc1Oc1ccc(C[C@H](N)C(=O)N2CCN(Cc3cccc(Cl)c3Cl)CC2)cc1 [Example 348],
,,MT-II,"food intake (Rodents): reduced food intake; penile erections [1, 3]: intermittent non-painful penile erections; period of erections after dosing [1, 3]: 1 to 5 h; onset of transient erections [1, 4]: 50 to 180 min; responders with transient erections [1, 4]: 8"
,,SHU-9119,food intake (Rodents): reverses this effect and can induce hyperphagia
